SMILES strings stand for the structures.

Type in all cases: functional
Test [1] deals with Feline immunodeficiency virus. Description: Effect on replication of FIV 34TF10env in chronically infected feline glial cell lines G355-5 at 1000 nM conc; RT activity per ug/mL of protein concentration.
In test [2] the test system is Feline immunodeficiency virus. Description: Effect on replication of FIV 34TF10 in chronically infected feline glial cell lines G355-5 at 10 nM conc; RT activity per ug/mL of protein concentration.
For test [3], the system named is Feline immunodeficiency virus. Description: Effect on replication of FIV 34TF10env in chronically infected feline glial cell lines G355-5 at 0.1 nM conc; RT activity per ug/mL of protein concentration.
For test [4], the system named is Feline immunodeficiency virus. Nature of the test: Tested for the percentage decrease in replication of FIV-34TF10 at a concentration of 0.1 nM.
In test [5] the test system is Feline immunodeficiency virus. Description: Effect on replication of FIV 34TF10 in chronically infected feline glial cell lines G355-5 at 0.1 nM conc; RT activity per ug/mL of protein concentration.
Test [6] relates to Feline immunodeficiency virus. Nature of the test: Effect on replication of FIV 34TF10env in chronically infected feline glial cell lines G355-5 at 1 nM conc; RT activity per ug/mL of protein concentration.
Test [7] deals with Feline immunodeficiency virus. Description: Effect on replication of FIV 34TF10 in chronically infected feline glial cell lines G355-5 at 1 nM conc; RT activity per ug/mL of protein concentration.
For test [8], the system named is Feline immunodeficiency virus. Nature of the test: Effect on replication of FIV 34TF10env in chronically infected feline glial cell lines G355-5 at 10 nM conc; RT activity per ug/mL of protein concentration.
The subject of test [9] is Feline immunodeficiency virus. Nature of the test: Effect on replication of FIV 34TF10env in chronically infected feline glial cell lines G355-5 at 10000 nM conc; RT activity per ug/mL of protein concentration.
The test system of test [10] is Feline immunodeficiency virus. Description: Effect on replication of FIV 34TF10 in chronically infected feline glial cell lines G355-5 at 0 nM conc; RT activity per ug/mL of protein concentration.
The subject of test [11] is Feline immunodeficiency virus. Nature of the test: Effect on replication of FIV 34TF10env in chronically infected feline glial cell lines G355-5 at 0 nM conc; RT activity per ug/mL of protein concentration.
Test [12] relates to Feline immunodeficiency virus. Nature of the test: Effect on replication of FIV 34TF10 in chronically infected feline glial cell lines G355-5 at 1000 nM conc; RT activity per ug/mL of protein concentration.
In test [13] the test system is Feline immunodeficiency virus. Nature of the test: Effect on replication of FIV 34TF10 in chronically infected feline glial cell lines G355-5 at 10000 nM conc; RT activity per ug/mL of protein concentration.
Test [14] deals with Feline immunodeficiency virus. Nature of the test: Effect on replication of FIV 34TF10env in chronically infected feline glial cell lines G355-5 at 0.01 nM conc; RT activity per ug/mL of protein concentration.
The subject of test [15] is Feline immunodeficiency virus. Description: Effect on replication of FIV 34TF10 in chronically infected feline glial cell lines G355-5 at 0.01 nM conc; RT activity per ug/mL of protein concentration.
The test system of test [16] is Feline immunodeficiency virus. Nature of the test: Effect on replication of FIV 34TF10env in chronically infected feline glial cell lines G355-5 at 100 nM conc; RT activity per ug/mL of protein concentration.
In test [17] the test system is Feline immunodeficiency virus. Nature of the test: Effect on replication of FIV 34TF10 in chronically infected feline glial cell lines G355-5 at 100 nM conc; RT activity per ug/mL of protein concentration.

Regarding `CN(C)CCCNC(=O)c1cc(NC(=O)c2cc(NC(=O)c3cc(NC(=O)c4ccccc4C(=O)O)cn3C)cn2C)cn1C`, the Reverse transcriptase activity in test [1] was found to be 2100; in test [2], 475; in test [3], 1990; in [5] it was 390; in [6] it was 1600; in [7], 800. The Reverse transcriptase activity in [8] was 1700; in test [9], 1800; in [10], 1200; in test [11] it was 1590; in [12], 480; in test [13], 950. Also, the Reverse transcriptase activity in [14] is recorded as 2000; in test [15], 665; in test [16] it was 1900; in test [17], 490. In [4], this compound returned a Decrease of 75%.

On to `Cc1nc(N)sc1C(=O)Nc1cn(C)c(C(=O)Nc2cn(C)c(C(=O)NCCCN(C)C)n2)n1`, for which the Reverse transcriptase activity in test [1] is 1700; in test [2], 475; in test [3], 1500; in test [5], 350; in [6], 2000; in test [7], 800. For the same compound, the Reverse transcriptase activity turned out to be 1500 in test [8]; 2100 in [9]; 1025 in test [10]; 2200 in [11]; 500 in test [12]; 950 in test [13]. Moreover, the Reverse transcriptase activity in [14] worked out at 2000; in test [15] it was 675; in [16], 1800; in test [17], 550. This compound also registered a Decrease in test [4] of 75%.

(Values after ChEMBL document CHEMBL1135453, “Inhibition of feline immunodeficiency virus (FIV) replication by DNA binding polyamides” (2002).)
